For data set [1], the system named is Human LAD2 cells. The data set can be described thus: Mast Cell Beta-Hexosaminidase Release Assay. Type of data set: cell-based. The note with it: 500 nM Cortistatin-14, read-out: MRGPRX2 Antagonist Activity. As for the experimental part: Human LAD2 cells (NIH) were maintained in an incubator at 37° C. with 5% CO2 and cultured in StemPro-34 serum-free media (Gibco 10639011) supplemented with 2 mM L-glutamine, 100 U/ml penicillin, […] streptomycin and 100 ng/ml SCF (Invitrogen PEP0860), at a concentration of 2-5×10^5 cells/mL, with hemidepletion every 1-2 weeks.
Cells were transferred to SCF-Free medium at 2.5×10^5 cells/mL and kept in an incubator overnight. On the day of the assay, cells were washed twice in Assay Buffer (final concentrations 10 mM HEPES, 137 mM NaCl, 5.6 mM D-glucose, 2.7 mM KCl, 1 mM MgCl, 1.8 mM CalCl2, 0.4 mM Na2HPO4·7H2O, 0.04% BSA, pH=7.4) and plated in a 96-well v-bottom plate at 20,000 cells per well in 80 μL Assay Buffer. Antagonist compounds solubilized at 10 mM in DMSO were diluted in Assay Buffer to 10× final desired concentrations as a 10-point curve (10 μM final top concentration with 1:3 serial dilutions) and 10 μL added per well. Plates were then incubated for 1 hour at 37° C. Agonists were diluted in Assay Buffer to 10× desired concentrations and 10 μL of the appropriate agonist added to each well. The final concentration of Cortistatin-14 (Tocris 3374) used in antagonist assays was 500 nM. Final concentrations of DMSO were kept consistent across the plate. Plates were then incubated in a warm air oven for 30 minutes at 37° C., followed by centrifugation at 4° C. for 5 minutes at 450×g. 50 μL supernatant from each well was then transferred to a 96-well flat bottom plate containing 100 μL substrate solution per well (3.5 mg/mL p-Nitrophenyl-N-acetyl-β-D-glucosaminide (Sigma 487052) in Citrate Buffer containing a final concentration of 40 mM Citric Acid, 20 mM Na2HPO4·7H2O, pH=4.5). To the cell pellets left in the remaining assay buffer, 150 μL 0.1% Triton-X-100 was then added to each well, resuspended by pipetting up and down, and 50 μL cell lysates transferred to a second 96-well flat bottom plate containing 100 μL substrate solution per well. Plates containing transferred supernatant and cell lysates were then incubated in a warm air oven for 90 minutes at 37° C. After incubation, 50 μL of 400 mM Glycine buffer (pH 10.7) was added into each well and the plate was read on a Molecular Devices SpectraMax iD5 plate reader (absorbance at 405 nm with reference filter at 620 nm). After background subtraction, the percentage degranulation (percent beta-hexosaminidase release) was calculated as 100×(supernatant values)/(supernatant+lysate values), followed by analysis using GraphPad Prism software to calculate an IC50 value for each compound.
The activity ranges are denoted as follows: “+++++” denotes antagonist activity <100 nM; “++++” denotes antagonist activity between 100 and 500 nM; “+++” denotes activity between 501 and 1000 nM; “++” denotes activity between 1001 and 2500 nM; and “+” denotes activity >2500 nM.

The target in data set [2] is T1, human MRGPRX2 (Homo sapiens, UniProt Q96LB1).
T1 construct: expressed in transfected cells
T1 sequence (Q96LB1 1-330): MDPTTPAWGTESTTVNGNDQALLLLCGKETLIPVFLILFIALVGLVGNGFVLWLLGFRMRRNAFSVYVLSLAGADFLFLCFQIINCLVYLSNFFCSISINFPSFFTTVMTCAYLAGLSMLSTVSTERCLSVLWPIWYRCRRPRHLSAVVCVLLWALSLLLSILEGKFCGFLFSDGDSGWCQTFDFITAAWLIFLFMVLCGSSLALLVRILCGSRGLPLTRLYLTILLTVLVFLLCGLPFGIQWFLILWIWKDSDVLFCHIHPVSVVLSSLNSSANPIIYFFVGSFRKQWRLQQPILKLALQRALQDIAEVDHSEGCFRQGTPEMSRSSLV
The experiment in a line: MRGPRX2 activity: IP-One HTRF antagonist assay in CHO cells versus Cortistatin-14. The class given is cell-based. The note with it: CHO cells stably expressing human MRGPRX2; versus 0.3 uM Cortistatin-14 agonist; IP-1 HTRF. As for the experimental part:
CHO cells stably transfected to express human MRGPRX2 were maintained in an incubator at 37° C. with 5% CO2 and grown in F12 (HAM) media with 10% fetal bovine serum (FBS), 1% Glutamax, 1% penicillin/streptomycin, 800 μg/mL Geneticin (G418), and 300 μg/mL Hygromycin B.
Cells were plated in a 384-well assay plate at 20,000 cells per well in 12 μL of Opti-MEM and kept in an incubator overnight. On the day of the assay, compounds solubilized at 10 mM in DMSO were added as a 10-point curve (30 uM final top concentration with 1:3 serial dilutions) using a Tecan D300E digital dispenser. Agonists were diluted in assay buffer (final concentrations of 5.7 mM Tris-HCl, 43 mM NaCl, 50 mM LiCl, pH=8) and 2 μL of the agonist Cortistatin-14 (CPC Scientific, catalog CORT-002) are added to each well. Final concentrations of agonists were 0.3 μM Cortistatin. Final concentrations of DMSO were kept consistent across the plate. Plates were incubated in the dark for 1 h at 37° C. and then for 1 h at room temperature. IP-1 standards and HTRF detection reagents were added according to the IP-One-Gq Kit purchased from Cisbio (part number 62IPAPEJ) and incubated in the dark for 1 h at room temperature. The plate was read on a Molecular Devices SpectraMax iD5 plate reader. The HTRF ratio was calculated from the raw data and graphed using GraphPad Prism to calculate an IC50 value for each compound.
The activity ranges are denoted as follows: “+++++” denotes antagonist activity <100 nM; “++++” denotes antagonist activity between 100 and 500 nM; “+++” denotes activity between 501 and 1000 nM; “[…]” denotes activity between 1001 and 2500 nM; and “+” denotes activity >2500 nM
In general terms: Time-resolved FRET reads energy transfer from a long-lived donor to a nearby acceptor.

A short description of data set [3]: Mouse Pharmacokinetics Studies (50 mg/kg oral gavage, plasma LC-MS/MS). Type of data set: in vivo. The note with it: Male C57BL/6 mice, non-fasted; for AUC(0-t) / Cmax / Tmax: mouse; for Tmax: read-out: PK: Tmax. As for the experimental part:
Compounds were formulated in 5% DMSO, 5% Solutol, and 90% PBS without Ca and Mg (pH 7.4) at a concentration of 5 mg/mL. Male C57BL/6 mice (n=3/compound) were administered a 50 mg/kg dose of each compound by oral gavage under a non-fasted condition. Blood samples were collected via the saphenous vein onto K2-EDTA at 0.25, 0.5, 1, 2, 4, 8 and 24 hours after dosing, and plasma was prepared and stored at −80° C. until analysis. Plasma sample preparation for analysis was done by protein precipitation using acetonitrile (including Verapamil as an internal standard) followed by centrifugation. Compound concentrations were determined in extracted plasma using LC-MS/MS relative to a 12-point standard curve covering the 1 to 4000 nM range. Non-compartmental analysis using Phoenix WinNonlin was used to estimate pharmacokinetic parameters including area under the curve, clearance, and half-life. The administered dose was confirmed by analysis of residual dosing material by UPLC-UV relative to a single point calibration sample.

The source of these data is patent US12129244B2, “Modulators of Mas-related G-protein receptor X2 and related products and methods” (Escient Pharmaceuticals, Inc., priority 2022, dated 2024).

Where only a bound is given, the exact number is not on record here.

Take `CS(=O)(=O)Nc1cccc(C(=O)N[C@@H]2CCC[C@H](Nc3cc(C(F)(F)F)nc4ccc(Cl)cc34)C2)c1` (stereo in doubt) [Example 14, N-((1R,3S)-3-((6-chloro-2-(trifluoromethyl)quinolin-4-yl)amino)cyclohexyl)-3-(methylsulfonamido)benzamide]: the IC50 in data set [1] and in data set [2] was below 100 nM each time.
For orientation: AUC(0-t) means the area under the concentration-time curve up to a stated or last time point. The low end stands for low exposure, the high end for high exposure. The Cmax is the highest concentration seen after dosing. For orientation: Tmax means the time at which the peak concentration occurs. Turning to `COc1ccc(C(=O)N[C@@H]2CCC[C@H](Nc3cc(C(F)(F)F)nc4ccc(Cl)cc34)C2)cc1` [Example 1, N-((1R,3S)-3-((6-chloro-2-(trifluoromethyl)quinolin-4-yl)amino)cyclohexyl)-4-methoxybenzamide], the IC50 in data set [1] is below 100 nM. Besides, in data set [3], the “AUC 0-24” value amounted to 78 µM·h, the AUC(0-t) came out at 78 µM·h, the Cmax is 6.1 µM and the Tmax was found to be 8 h.
On to `COc1ccc(C(=O)N[C@@H]2CCC[C@H](Nc3cc(C(F)(F)F)nc4ccc(C)cc34)C2)cc1` [Example 1-3], for which the IC50 in data set [1] was in the range of 100 to 500 nM. For the same compound, in data set [3], the “AUC 0-24” value was 83 µM·h, the AUC(0-t) was 83 µM·h, the concentration peaked (Cmax) at 13 µM and the Tmax is 0.83 h. Further, in data set [2], the IC50 was below 100 nM.
In the case of `O=C(N[C@@H]1CCC[C@H](Nc2cc(C(F)(F)F)nc3ccccc23)C1)c1ccc(F)cc1` [Example 1-8], in data set [1], the IC50 is above 2500 nM. Besides, in data set [3], the “AUC 0-24” value stood at 650 µM·h, the area under the curve AUC(0-t) came to 650 µM·h, the highest level (Cmax) was 48 µM and the Tmax stood at 8 h.
For the compound `N#Cc1cccc(C(=O)N[C@@H]2CCC[C@H](Nc3cc(C(F)(F)F)nc4ccccc34)C2)c1` [Example 3-4], the IC50 in data set [1] lay in the range of 1000 to 2500 nM. Also, in data set [3], the “AUC 0-24” value came to 230 µM·h, the area under the curve AUC(0-t) worked out at 230 µM·h, the peak level (Cmax) was 30 µM and the Tmax is 3.3 h.
Regarding `O=C(N[C@@H]1CCC[C@H](Nc2cc(C(F)(F)F)nc3ccc(Cl)cc23)C1)c1cccc2ncsc12` [Example 4-225], the IC50 in data set [1] and in data set [2] was below 100 nM each time.
With `CNc1ccc(C(=O)N[C@@H]2CCC[C@H](Nc3cc(C(F)(F)F)nc4ccc(F)cc34)C2)cc1` [Example 4-303], the IC50 in data set [1] and in data set [2] was below 100 nM throughout.
With `CCS(=O)(=O)Nc1cccc(C(=O)N[C@@H]2CCC[C@H](Nc3cc(C(F)(F)F)nc4ccc(F)cc34)C2)c1` [Example 4-304], the IC50 in data set [1] and in data set [2] was below 100 nM throughout.
For `CC(=O)Nc1cccc(C(=O)N[C@@H]2CCC[C@H](Nc3cc(C(F)(F)F)nc4ccc(F)cc34)C2)c1` [Example 4-306], in data set [1], the IC50 was below 100 nM.
Take `CC(C)S(=O)(=O)Nc1ccc(F)c(C(=O)N[C@@H]2CCC[C@H](Nc3cc(C(F)(F)F)nc4ccc(F)cc34)C2)c1F` [Example 4-318]: the IC50 in data set [1] lay within 501 to 1000 nM.
In the case of `Cn1cc(C(=O)N[C@@H]2CCC[C@H](Nc3cc(C(F)(F)F)nc4ccc(Cl)cc34)C2)cn1` [Example 4-400], the IC50 in data set [1] was below 100 nM. Besides, in data set [3], the “AUC 0-24” value stood at 640 µM·h, the AUC(0-t) is 640 µM·h, the Cmax was determined as 61 µM and the Tmax came out at 1.3 h. In data set [2], this compound yielded an IC50 below 100 nM.
On to `COc1ccc(C(=O)N[C@@H]2CCC[C@H](Nc3cc(C(F)(F)F)nc4ccc(Cl)cc34)C2)cn1` [Example 4-414], for which the IC50 in data set [1] was below 100 nM. Also, in data set [3], the “AUC 0-24” value was found to be 140 µM·h, the AUC(0-t) came out at 140 µM·h, the concentration peaked (Cmax) at 11 µM and the Tmax amounted to 4 h. The compound further yielded an IC50 in data set [2] below 100 nM.
`O=C(N[C@@H]1CCC[C@H](Nc2cc(C(F)(F)F)nc3ccc(Cl)cc23)C1)c1ccc(B(O)O)cc1` [Example 4-430]: the IC50 in data set [1] and in data set [2] was below 100 nM each time.
Consider `Cc1cc(C(=O)N[C@@H]2CCC[C@H](Nc3cc(C(F)(F)F)nc4ccc(Cl)cc34)C2)cn1CCF` [Example 5-2], for which the IC50 in data set [1] is below 100 nM.
Regarding `N#CCn1cc(C(=O)N[C@@H]2CCC[C@H](Nc3cc(C(F)(F)F)nc4ccc(Cl)cc34)C2)c(Cl)n1` [Example 5-3], in data set [1], the IC50 is below 100 nM.
On to `O=C(N[C@@H]1CCC[C@H](Nc2cc(C(F)(F)F)nc3ccc(Cl)cc23)C1)N1CC2(CC2)C1` [Example 8-9], for which the IC50 in data set [1] is 100 to 500 nM; in data set [2], below 100 nM.
As to `Nc1ncc(C(=O)N[C@@H]2CCC[C@H](Nc3cc(C(F)(F)F)nc4ccc(Cl)cc34)C2)cn1` [Example 15, 2-amino-N-[(1R,3S)-3-{[6-chloro-2-(trifluoromethyl)quinolin-4-yl]amino}cyclohexyl]pyrimidine-5-carboxamide], the IC50 in data set [1] was below 100 nM. For the same compound, in data set [3], the “AUC 0-24” value was 140 µM·h, the AUC(0-t) is 140 µM·h, the Cmax worked out at 36 µM and the Tmax turned out to be 1 h.
In the case of `CC(C)C(=O)N1CCN(C(=O)N[C@@H]2CCC[C@H](Nc3cc(C(F)(F)F)nc4ccc(Cl)cc34)C2)CC1` [Example 44, N-((1R,3S)-3-((6-chloro-2-(trifluoromethyl)quinolin-4-yl)amino)cyclohexyl)-4-isobutyrylpiperazine-1-carboxamide], the IC50 in data set [1] was below 100 nM.
Still for that read-out and setting: the same measure for `CC1(F)CN(C(=O)N[C@@H]2CCC[C@H](Nc3cc(C(F)(F)F)nc4ccc(Cl)cc34)C2)C1` [Example 45, N-((1R,3S)-3-((6-chloro-2-(trifluoromethyl)quinolin-4-yl)amino)cyclohexyl)-3-fluoro-3-methylazetidine-1-carboxamide]: 100 to 500 nM.
